Measured values from US20250042918A1, “COMPOUNDS” (Fundación Del Sector Públlco Estatal Centro Nacional De …, priority 2021, published 2025).

Experiments:
[1] = test system: BAD S112 phosphorylation in H1299 cells overexpressing PIM-1 (H1299Pim1); test: BAD S112 phosphorylation inhibition assay (in Cell ELISA); format: cell-based; settings: Homo sapiens, NCI-H1299, 4 hours, medium without FBS, read-out: BAD PH 1299PIM 1 ELIWO
Procedure: The efficacy of the compounds of the invention on the inhibition of BAD phosphorylation was measured by an in Cell ELISA.
Materials: H1299 cells overexpressing PIM-1 (H1299Pim1). DMSO Plates: 96-well-Polystyrene, Untreated, Round-Bottom plates from Costar (Cat #3797). Cell Plates: 96-Flat bottom biocoated with Poly-D-Lysin plates with lid from Becton Dickinson (Cat #354651). Cell Culture Medium: DMEM high glucose, 10% Fetal Bovine Serum, 2 mM L-Glutamine, P/S. Antibodies: phospho BAD S112 antibody from Cell Signaling (cat. #9291S), anti-rabbit conjugated with peroxidase from Amersham (cat. #3619). Reagent: SuperSignal ELISA femto from Pierce (cat. #1001110).
Procedure: Cells were seeded in 15000 cells per 200 μl per well into 96-well plates and incubated for 16 h at 37° C., 5% CO2. On day two, nine serial 1:2 compound dilutions were made in DMSO in a 96-well plate. The compounds were added to duplicate wells in 96-well cell plates using a FX BECKMAN robot (Beckman Coulter) and were incubated at 37° C. under CO2 atmosphere in medium without fetal bovine serum (FBS). After 4 hours, relative levels of BAD S112 phosphorylation were measured in Cell ELISA using SuperSignal ELISA Femto substrate (Pierce) and read on VICTOR (Perkin Elmer). EC50 values were calculated using ActivityBase from IDBS.

[2] = biological target: T1, PIM-2 (Homo sapiens, UniProt Q9P1W9); test: Protein PIM kinase assay (ADP Hunter Plus); format: biochemical; settings: 100 μM ATP, 100 μM PIMtide
T1 construct: made in house
Procedure: (§1) PIM kinase activities were measured by using the commercial ADP Hunter™ Plus assay (DiscoveRx Ref. #33-016), a homogeneous assay measuring ADP accumulation, as a universal product of kinase activity. PIM-1 and PIM-2 proteins were obtained by purification as it is described by Martinez-Gonzalez et. al. Eur. J. Med Chem. 2019, 168, 87-109 and PIM-3 was acquired from Millipore (Cat #14-738). The assay was done following general manufacturer recommendations and adapting protein and substrates concentrations to optimal conditions. Kinase buffer was 15 mM HEPES, pH 7.4, 20 mM NaCl, 1 mM EGTA, 0.02% Tween-20, 10 mM MgCl2 and 0.1 mg/mL LBGG (bovine y-globulin). All PIM kinases assays were done at 100 μM PIM tide (ARKRRRHPSGPPTA), as peptide substrate, and 100 μM ATP. Protein concentration was 50, 350 and 200 pg/μl for PIM-1, 2 and 3, respectively. In order to calculate the IC50 of described compounds, serial 1:3 dilutions were prepared and the reaction started by addition of ATP. Incubation was done for 1 h at 25° C. Reagents A and B (DiscoveRx) were sequentially added to the wells and plates were incubated for 30 min at 37° C. Fluorescence counts were read in a Victor instrument (Perkin Elmer) with the recommended settings (544 and 580 nm as excitation and emission wavelengths, respectively). Values were plot against inhibitor concentration and fit to a sigmoid dose-response curve using Activity Base software from IDBS.

[3] = biological target: T2, PIM-3 (Homo sapiens, UniProt Q86V86); test: Protein PIM kinase assay (ADP Hunter Plus); format: biochemical; settings: 100 μM ATP, 100 μM PIMtide
T2 construct: purchased Millipore 14-738
Procedure: as §1

[4] = biological target: T3, PIM-1 (Homo sapiens, UniProt P11309); test: Protein PIM kinase assay (ADP Hunter Plus); format: biochemical; settings: 100 μM ATP, 100 μM PIMtide
T3 construct: made in house
Procedure: as §1

[5] = test system: A549; test: Combination antiproliferation with Example 1; format: cell-based; design: key to Synergy: ++++ indicates a very strong synergistic effect; +++ a strong synergistic effect; ++ a synergistic effect; settings: agent in combination with Example 1, A549, Lung Cancer
Procedure: (§2) The cells were harvested just before reaching confluency, counted with a haemocytometer and diluted with media. Cells were then seeded in 96-well microtiter plates at a density of 4,000 cells/well. Cells were incubated for 24 hours before adding the compounds.
(§3) Compounds were weighed out and diluted with DMSO to a final concentration of 10 mM. From here a “mother plate” with serial dilutions was prepared at 200× the final concentration in the culture. The final concentration of DMSO in the tissue culture media should not exceed 0.5%. The appropriate volume of the compound solution (2 μl) was added automatically (Beckman FX 96 tip) to 0.2 ml media to make it up to the final concentration for each drug.
(§4) Each concentration was assayed in duplicate. Cells were exposed to the compounds for 72 h and then processed for CellTiter-Glo® Luminescent Cell Viability Assay (Promega) read out according to manufacturer's Instruction and read on EnVision (Perkin Elmer). GI50 values were calculated using ActivityBase from IDBS.
(§5) A combination index score was calculated by the Chou and Talalay method (CalcuSyn software, Biosoft).

[6] = test system: HCT116; test: Combination antiproliferation with Example 1; format: cell-based; design: key to Synergy: ++++ indicates a very strong synergistic effect; +++ a strong synergistic effect; ++ a synergistic effect; settings: agent in combination with Example 1, HCT116, Colon Cancer
Procedure: as §2, §3, §4, §5

[7] = test system: T47D; test: Combination antiproliferation with Example 1; format: cell-based; design: key to Synergy: ++++ indicates a very strong synergistic effect; +++ a strong synergistic effect; ++ a synergistic effect; settings: agent in combination with Example 1, T47D, Breast Cancer
Procedure: as §2, §3, §4, §5

[8] = test system: Jeko-1; test: Combination antiproliferation with Example 1; format: cell-based; design: key to Synergy: ++++ indicates a very strong synergistic effect; +++ a strong synergistic effect; ++ a synergistic effect; settings: agent in combination with Example 1, Jeko-1, Mantle Cell Lymphoma
Procedure: as §2, §3, §4, §5

[9] = test system: DU145; test: Combination antiproliferation with Example 1; format: cell-based; design: key to Synergy: ++++ indicates a very strong synergistic effect; +++ a strong synergistic effect; ++ a synergistic effect; settings: agent in combination with Example 1, DU145, Prostate Cancer
Procedure: (§6) The cells were harvested just before reaching confluency, counted with a haemocytometer and diluted with media. Cells were then seeded in 96-well microtiter plates at a density of 4,000 cells/well. […] Compounds were weighed out and diluted with DMSO to a final concentration of 10 mM. From here a “mother plate” with serial dilutions was prepared at 200× the final concentration in the culture. The final concentration of DMSO in the tissue culture media should not exceed 0.5%. The appropriate volume of the compound solution (2 μl) was added automatically (Beckman FX 96 tip) to 0.2 ml media to make it up to the final concentration for each drug. Each concentration was assayed in duplicate. Cells were exposed to the compounds for 72 h and then processed for CellTiter-Glo® Luminescent Cell Viability Assay (Promega) read out according to manufacturer's Instruction and read on EnVision (Perkin Elmer). GI50 values were calculated using ActivityBase from IDBS. […] A combination index score was calculated by the Chou and Talalay method (CalcuSyn software, Biosoft). The combination partner compounds were as follows: • the PI3K inhibitor pictisilib (GDC-0941); • the MEK inhibitor merdametinib (PD-0325901); and the EGFR and ErbB2 inhibitor lapatinib

[10] = test system: HT29; test: Combination antiproliferation with Example 1; format: cell-based; design: key to Synergy: ++++ indicates a very strong synergistic effect; +++ a strong synergistic effect; ++ a synergistic effect; settings: agent in combination with Example 1, HT29, Colon Cancer
Procedure: as §6

[11] = test system: SKMEL19; test: Combination antiproliferation with Example 1; format: cell-based; design: key to Synergy: ++++ indicates a very strong synergistic effect; +++ a strong synergistic effect; ++ a synergistic effect; settings: agent in combination with Example 1, SKMEL19, Melanoma
Procedure: as §6

[12] = test system: U87MG; test: Combination antiproliferation with Example 1; format: cell-based; design: key to Synergy: ++++ indicates a very strong synergistic effect; +++ a strong synergistic effect; ++ a synergistic effect; settings: agent in combination with Example 1, U87MG, Glioblastoma
Procedure: as §2, §3, §4, §5

[13] = test system: OCI-M1; test: In vitro potency against leukemia cell lines (CellTiter Glo); format: cell-based; settings: 72 hours, read-out: absolute IC50 OCI-M1
Procedure: (§7) To prepare the complete medium FBS and appropriate additives were added according to the information sheet provided by the vendor and mixed gently. The cell name and complete medium and passage number marked on the flask were checked, and the culture medium removed and discarded using a vacuum pump. […] 3.0 ml of Trypsin-EDTA solution was added to the flask and the cells observed under an inverted microscope until cell layer is dispersed. 8.0 ml of complete growth medium was added and the cells aspirated by gently pipetting. The cell suspension was transferred to a centrifuge tube and centrifuged at 800-1000 rpm for 3-5 minutes. The supernatant was discarded using a vacuum pump, and an appropriate volume of complete medium added. The cell pellet was suspended by gently pipetting, and the cell numbers counted with Vi-cell XR and the cells adjusted to appropriate density. 100 μL of cell suspension to 96-well opaque-walled clear bottom plates was added according to the planned plate layout and the plates placed in the CO2 incubator overnight.
(§8) c. […] Meanwhile the day 0 plate was measured by Cell TiterGlo as listed below.
(§9) d. Cells were incubated with the compounds for 72 h at 5% CO2, 37° C.
(§10) The plate and its contents were equilibrated to room temperature for approximately 30 minutes, after which 100 μL of CellTiter-Glo reagent was added to the assay plate by Multidrop Combi instrument and the contents mixed for 10 minutes on an orbital shaker to induce cell lysis. The plate was allowed to incubate at room temperature for 10 minutes to stabilize luminescent signal and the clear bottom pasted with white back seal and the luminescence recorded with Enspire with the settings: Luminescence, measurement time 0.1 ms.
(§11) In all cases, the incubation time was 72 hours and the cell lines were grown as a suspension. The seeding density was […] in a 96 well plate.

[14] = test system: KG-1; test: as above; format: cell-based; settings: Homo sapiens, 72 hours, read-out: absolute IC50 KG-1
Procedure: as §7, §8, §9, §10, §11

[15] = test system: T-47D; test: In vitro potency against breast cancer cell lines (CellTiter Glo); format: cell-based; settings: Homo sapiens, T47D, 72 h; read-out: absolute IC50 T-47D
Procedure: as §7, §8, §9
(§12) The CellTiter-Glo buffer was thawed and equilibrated to room temperature prior to use. The lyophilized CellTiter-Glo substrate was equilibrated to room temperature prior to use. The appropriate volume of CellTiter-Glo buffer was transferred into the amber bottle containing CellTiter-Glo substrate to reconstitute the lyophilized enzyme/substrate mixture, thereby forming the CellTiter-Glo reagent. Mixing was carried out by gently vortexing, swirling or by inverting the contents to obtain a homogeneous solution, the CellTiter-Glo substrate going into solution easily in less than one minute.
as §10

[16] = test system: BT-474; test: as above; format: cell-based; settings: Homo sapiens, BT-474, 72 h; read-out: absolute IC50 BT-474
Procedure: as §7, §8, §9, §12, §10

[17] = test system: HCC1143; test: as above; format: cell-based; settings: Homo sapiens, HCC1143, 72 h; read-out: absolute IC50 HCC1143
Procedure: as §7, §8, §9, §12, §10

T3 sequence (P11309 whole entry): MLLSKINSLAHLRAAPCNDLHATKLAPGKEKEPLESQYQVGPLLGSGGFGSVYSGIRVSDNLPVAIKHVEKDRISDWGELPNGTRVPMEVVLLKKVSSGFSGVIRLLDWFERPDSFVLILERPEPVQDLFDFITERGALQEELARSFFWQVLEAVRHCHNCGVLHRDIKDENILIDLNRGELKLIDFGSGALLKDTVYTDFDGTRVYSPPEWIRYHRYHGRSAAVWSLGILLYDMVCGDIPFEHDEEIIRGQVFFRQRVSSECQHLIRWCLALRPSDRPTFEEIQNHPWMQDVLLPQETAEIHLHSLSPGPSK
T1 sequence (Q9P1W9 whole entry): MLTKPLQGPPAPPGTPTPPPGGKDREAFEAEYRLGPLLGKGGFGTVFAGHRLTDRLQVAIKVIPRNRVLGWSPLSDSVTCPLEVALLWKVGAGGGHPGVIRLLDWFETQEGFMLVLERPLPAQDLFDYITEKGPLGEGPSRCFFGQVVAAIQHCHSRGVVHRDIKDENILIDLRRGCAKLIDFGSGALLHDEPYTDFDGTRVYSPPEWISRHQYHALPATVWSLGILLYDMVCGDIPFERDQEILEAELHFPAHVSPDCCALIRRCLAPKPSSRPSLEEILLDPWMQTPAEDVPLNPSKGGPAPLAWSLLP

EC50 [1] [nM] | IC50 [2] [nM] | IC50 [3] [nM] | IC50 [4] [nM] | SMILES | C.I. (combination index) [9] | Synergy [9] | C.I. (combination index) [11] | Synergy [11] | other results
7.11 | 1 to 5 | 1 to 5 | < 1 | CN1CCOc2c1c(N[C@H]1CC[C@@](C)(O)CC1)nn1c(-c3ccc(F)c(C(F)(F)F)c3)nnc21 [Example 2, 4-[3-(4-Fluoro-3-trifluoromethyl-phenyl)-6-methyl-7,8-dihydro-6H-9-oxa-1,2,3a,4,6-pentaaza-cyclopenta[a]naphthalen-5-ylamino]-1-methyl-cyclohexanol] | – | – | – | – | –
4.15 | 5 to 10 | 1 to 5 | < 1 | CC1(O)CCC(Nc2nn3c(-c4cccc(OC(F)(F)F)c4)nnc3c3c2CCCO3)CC1 (centres unmarked) [Example 3, 1-Methyl-4-[3-(3-trifluoromethoxy-phenyl)-7,8-dihydro-6H-9-oxa-1,2,3a,4-tetraaza-cyclopenta[a]naphthalen-5-ylamino]-cyclohexanol] | – | – | – | – | –
– | – | – | – | CS(=O)(=O)CCNCc1ccc(-c2ccc3ncnc(Nc4ccc(OCc5cccc(F)c5)c(Cl)c4)c3c2)o1 [Lapatinib, lapatinib] | 0.52 | ++ | – | – | C.I. (combination index) [5]: 0.47; Synergy [5]: ++; C.I. (combination index) [6]: 0.51; Synergy [6]: ++; C.I. (combination index) [7]: 0.27; Synergy [7]: +++; C.I. (combination index) [8]: 0.70; Synergy [8]: ++
– | – | – | – | O=C(NOC[C@H](O)CO)c1ccc(F)c(F)c1Nc1ccc(I)cc1F [Merdametinib, merdametinib] | 0.55 | ++ | 0.038 | ++++ | C.I. (combination index) [10]: 0.62; Synergy [10]: ++
– | – | – | – | CS(=O)(=O)N1CCN(Cc2cc3nc(-c4cccc5[nH]ncc45)nc(N4CCOCC4)c3s2)CC1 [Pictisilib, pictisilib] | 0.24 | +++ | 0.54 | ++ | C.I. (combination index) [12]: 0.46; Synergy [12]: ++
– | – | – | – | CN[C@@H]1C[C@H]2O[C@@](C)([C@@H]1OC)n1c3ccccc3c3c4c(c5c6ccccc6n2c5c31)C(=O)NC4 [Staurosporine] | – | – | – | – | IC50 [13]: 48.4 nM; IC50 [14]: 23.2 nM; IC50 [15]: 219 nM; IC50 [16]: 76.6 nM; IC50 [17]: 11 nM
